One assay has as its system strawberries. The assay is described as follows: In vivo test on strawberries with controlled release diffuser. The note with it: diffuser with 50 μL, 20° C., darkness, approx. 7 days, versus control; listed as composition of the present invention. As to the method:
Mature strawberries were brought directly from local market and sent to laboratory within 2 hours. The strawberries were divided into two equal groups and each group of strawberries was placed in a box.
One group of strawberries were not exposed to any product (control) and another group of strawberries were exposed to a controlled release diffuser that contains the composition of the present invention. The controlled release diffuser was prepared using cellulose sheets (0.2 cm thick) in pieces (2×1 cm) and impregnated with 50 μL of pure β-cyclocitral (β-CC). These sheets were inserted into polyethylene bags (3×3 cm) that were subsequently heat-sealed.
The diffuser was place in the middle of one box from 10 cm to the surface of strawberries. The two boxes were covered with a plastic bag to keep inside a homogeneous atmosphere. Boxes were kept in an acclimated chamber (20° C., darkness) until the symptoms of fungi degradation (approx. 7 days).

The next assay relates to Monilinia sp. Kind of assay: Vapor-agar contact method, colony diameter. The assay is classed as cell-based. The procedure:
(§1) The fungi grown on strawberries was isolated and cultured on potato dextrose agar (PDA, Condalab, Madrid Spain) The fungus was identified as Monilinia sp.
Antifungal activity was determined by the vapor-agar contact method previously described by Sekiyama et al.. Fungi were cultured on potato dextrose agar (PDA) medium at 27° C. for a week. Fungal spores were then inoculated in the center of PDA plates which were aseptically placed in a chamber without lids.
A controlled release diffuser as described in examples 1 and 2 was used. In this example 3 doses of β-cyclocitral (β-CC) were used: 20, 50 and 100 μL.
The diffusers were introduced into the chambers, 6 cm far from the PDA plate, followed by proper sealing. Incubation in the chambers was performed at 27° C. for 3-5 days. The inhibitory activity was evaluated by measuring the diameter of colonies formed by the tested fungal strains. The minimum inhibitory dose (MID) was defined as the lowest concentration (mg/L in air) of volatile compounds which inhibited colony formation of test fungi by 50%.

A further assay deals with cherries. The assay is described as follows: In vivo test on cherries with controlled release diffuser. The conditions noted are these: diffuser with 50 μl, 20° C., darkness, 6 days; control approximately 23%. The procedure: Mature cherries were brought directly from Spanish farm and sent to laboratory within 24 hours. The cherries were divided into two equal groups and each group of cherries was placed in a plate.
One group of cherries were not exposed to any product (control) and another group of cherries were exposed to a controlled release diffuser that contains the composition of the present invention. The controlled release diffuser was prepared using cellulose sheets (0.2 cm thick) in pieces (2×1 cm) and impregnated with 50 μl of pure β-cyclocitral (β-CC). These sheets were inserted into polyethylene bags (3×3 cm) that were subsequently heat-sealed.
The diffuser was placed in the bottom of one plate. The two plates were covered with a plastic bag to keep inside a homogeneous atmosphere. Boxes were kept in an acclimated chamber (20° C., darkness) for 6 days.
Finally, the cherries (control and exposed to the composition) were separate into two groups: fruits able to consume (not sign of fungi) and fruits not able to consume (signs of fungi).

The subject of another assay is Monilinia sp. Kind of assay: Compartment PDA plate, β-CC and eucalyptol on cellulose, mycelium growth inhibition. In kind it is cell-based. The note with it: 25 μl of the single substance, 27° C., 3-5 days. As to the method: as §1
Fungal spores were then inoculated in the center of the compartment with PDA (40 mm diameter) and a small piece of cellulose with different volume of β-cyclocitral (β-CC) (composition of the present invention) and Eucalyptol was placed in one of the empty compartments. The plates were incubated at 27° C. for 3-5 days and the growth area of the mycelium and % of inhibition was measured.

In another assay the test system is Colletotrichum. Kind of assay: Vapor-agar contact method (modified, three-compartment petri dish). The assay is classed as cell-based. The note with it: 50 μL, 27° C., 3-5 days. As to the method: (§2) Inhibitory effects on the spore germination of other filamentous fungi, specifically Phytophtera nicotiana, Taphrina deformans, Colletotrichum and Rhizopus sp., were examined by the vapor-agar contact method described in example 1 with a slight modification as follows. Fungi were cultured on potato dextrose agar (PDA) medium at 27° C. for a week. It was used petri dish with three compartment, one compartment was filled out with PDA and another two was kept empty,
(§3) Fungal spores were then inoculated in the center of the compartment with PDA (40 mm diameter) and a small piece of cellulose with 50 μL of β-cyclocitral (β-CC) (composition of the present invention) was placed in one of the empty compartments. The plates were incubated at 27° C. for 3-5 days and the growth area of the mycelium and % of inhibition was measured.

Another assay deals with Rhizopus sp. The description is as above. In kind it is cell-based. The note with it: 50 μL. As to the method:
as §2, §3

The next assay deals with Phytophtera nicotiana. The description is as above. The assay is classed as cell-based. The note with it: 50 μL; stated in text for all fungi of the example. As to the method: as §2, §3
The test system of another assay is Taphrina deformans. Described as above. The assay is classed as cell-based. The conditions noted are these: 50 μL, 27° C., 3-5 days. The procedure: as §2, §3
The next assay has as its system roses. The assay is described as follows: In vivo test on roses with controlled release diffuser. The note with it: diffuser with 50 μL, 20° C., darkness, approx. 7 days, versus control. The procedure: Roses were brought directly from local market and sent to laboratory within 12 hours. The roses were divided into two equal groups and each group of roses was placed in a jar filled with tap water.
One group of roses were not exposed to any product (control) and another group of roses were exposed to a controlled release diffuser that contains the composition of the present invention. The controlled release diffuser was prepared using cellulose sheets (0.2 cm thick) in pieces (2×1 cm) and impregnated with 50 μL of pure β-cyclocitral (β-CC). These sheets were inserted into polyethylene bags (3×3 cm) that were subsequently heat-sealed.
The diffuser was place in the middle of jar from 20 cm to the surface of the petals. The two jars were covered with a plastic bag to keep inside a homogeneous atmosphere. jars were kept in an acclimated chamber (20° C., darkness) until the symptoms of fungi degradation (approx. 7 days).

Experimental findings from patent US20250151740A1, “COMPOSITION FOR PREVENTING FUNGAL SPOILAGE IN POST-HARVEST FRUITS, VEGETABLES AND FLOWERS, METHOD AND USE THEREOF” (BIOBAB R&D, S.L., priority 2022, published 2025) are described below.

A word on the % Inhibition: it is the relative decrease from the control value, in per cent. High values mean a response far below the control, low ones a response near the control.

“Also recorded” adds a separate entry of the source.

Regarding `CC1=C(C=O)C(C)(C)CCC1` [β-CC, beta-cyclocitral], the “rot / fungi contamination of strawberries” value in the assay with strawberries was “less fungi contamination; also recorded: less rot”. Besides, the inhibition result in the assay with Monilinia sp (concentrations higher than 50 μL) was “more than 60%”; in the assay on Monilinia sp (concentrations of 100 μL), 80-100%. For the same molecule, the “doses that inhibit 50% of mycelium fungi (MID)” value with Monilinia sp (from linear model y=1.01X+4.2047, doses 20, 50 and 100 μL, 27° C., 3-5 days) was 45.34 µL. Further, the “cherries suitable for consumption” value in the assay on cherries is “approximately 65%”. For the same molecule, the “% Inhibition” value with Monilinia sp. is listed as 78.22%; in the assay with Colletotrichum, 99.00%; in the assay on Rhizopus sp. (27° C., 3-5 days), 62.55%; with Taphrina deformans it was 100%. The Growth area in the assay on Colletotrichum turned out to be 6.15 cm^2; with Rhizopus sp. (27° C., 3-5 days), 1.45 cm^2; in the assay on Taphrina deformans, 0 cm^2. The “effect on spore germination (FIG. 3)” value with Rhizopus sp. (versus control) was “inhibitory effect on the spore germination”. This molecule also showed a growth inhibition in the assay on Phytophtera nicotiana of 100%. The spots on roses result in the assay with roses was “less spots”.
